From US7252926B2, “Planographic printing plate material and preparing process of planographic printing plate” (Konica Minolta Medical & Graphic, Inc., priority 2003, dated 2007)

Test: Solubility of the dye in methyl ethyl ketone (MEK)
Format: physicochemical
Details: dye dissolved in methyl ethyl ketone; wt % at 25° C.
Method: An anionic dye of the present invention dissolving in an amount of not less than 1% indicates an anionic dye dissolving in methyl ethyl ketone not less than 1 wt % at 25° C. More preferably, an anionic dye dissolving in methyl ethyl ketone in an amount of not less than 1.5 wt %. And still more preferably, it is not less than 2 wt %, and specifically preferably, it is not less than 2.5 wt %.

CCCCN1C(=O)C(=C2C=C(C)c3ccc(N(CC)CC)cc3O2)C(=O)N(CCCC)C1=S [Dye1 (nonion)]
MEK Solubility (%): 2%

Cn1c(-c2ccccc2)c(/C=C/C2=[N+](C)c3cc(Cl)ccc3C2(C)C)c2ccccc21 [Dye2 (cation)]
MEK Solubility (%): 1%
